What all share (test): biochemical
Common to all, as to design: KINOMEscan active site-directed competition binding assay (DiscoveRx), 456 kinases, per cent of control at 300 nM
Common to all, as to conditions: read-out: Percent of Control (%)

For assay [1], the target named is T1, ABL1(H396P)-nonphosphorylated (Homo sapiens, UniProt P00519, H396P).
T1 construct: nonphosphorylated
In outline: (§1)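 Kinase panel (456 enzymes) profiled by competitive displacement at the active site; compounds run at 300 nmol/L.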

A further assay has as its target ACVR1B (Homo sapiens, UniProt P36896). In outline: as §1
The target of the next assay is AURKB (Homo sapiens, UniProt Q96GD4). In outline: as §1
For the next assay, the target named is BRSK2 (Homo sapiens, UniProt Q8IWQ3). A digest of the protocol: as §1
For another assay, the target named is CDK3 (Homo sapiens, UniProt Q00526). In outline: as §1
Another assay addresses CIT (Homo sapiens, UniProt O14578). In outline:
as §1

The next assay has as its target CLK4 (Homo sapiens, UniProt Q9HAZ1). In outline:
as §1

A further assay concerns the target CSNK1G2 (Homo sapiens, UniProt P78368). A digest of the protocol:
as §1

The next assay has as its target EGFR(G719C) (Homo sapiens, UniProt P00533, G719C). In outline:
as §1

A further assay addresses EIF2AK1 (Homo sapiens, UniProt Q9BQI3). A digest of the protocol: as §1
The target of another assay is FGFR3(G697C) (Homo sapiens, UniProt P22607, G697C). A digest of the protocol: as §1
The next assay addresses FGR (Homo sapiens, UniProt P09769). In outline:
as §1

A further assay has as its target FLT3(K663Q) (Homo sapiens, UniProt P36888, K663Q). A digest of the protocol: as §1
The target of a further assay is MAP4K4 (Homo sapiens, UniProt O95819). In outline: as §1
For another assay, the target named is T2, MLK2 (Homo sapiens, UniProt Q02779).
T2 construct: gene MAP3K10
A digest of the protocol: as §1

For another assay, the target named is PIP5K1A (Homo sapiens, UniProt Q99755). In outline: as §1
The target in a further assay is PLK4 (Homo sapiens, UniProt O00444). A digest of the protocol:
as §1

The target of a further assay is PRKX (Homo sapiens, UniProt P51817). A digest of the protocol:
as §1

For assay [2], the target named is T3, RSK4(Kin.Dom.2-C-terminal) (Homo sapiens, UniProt Q9UK32).
T3 construct: gene RPS6KA6; Kin.Dom.2-C-terminal
A digest of the protocol:
as §1

The target of a further assay is SGK3 (Homo sapiens, UniProt Q96BR1). A digest of the protocol:
as §1

In a further assay the target is T4, SIK (Homo sapiens, UniProt P57059).
T4 construct: gene SIK1
A digest of the protocol: as §1

Another assay deals with T5, p38-alpha (Homo sapiens, UniProt Q16539).
T5 construct: gene MAPK14
A digest of the protocol:
as §1

Read-outs that look alike come from different tables or passages of the source.

T4 sequence (P57059 whole entry): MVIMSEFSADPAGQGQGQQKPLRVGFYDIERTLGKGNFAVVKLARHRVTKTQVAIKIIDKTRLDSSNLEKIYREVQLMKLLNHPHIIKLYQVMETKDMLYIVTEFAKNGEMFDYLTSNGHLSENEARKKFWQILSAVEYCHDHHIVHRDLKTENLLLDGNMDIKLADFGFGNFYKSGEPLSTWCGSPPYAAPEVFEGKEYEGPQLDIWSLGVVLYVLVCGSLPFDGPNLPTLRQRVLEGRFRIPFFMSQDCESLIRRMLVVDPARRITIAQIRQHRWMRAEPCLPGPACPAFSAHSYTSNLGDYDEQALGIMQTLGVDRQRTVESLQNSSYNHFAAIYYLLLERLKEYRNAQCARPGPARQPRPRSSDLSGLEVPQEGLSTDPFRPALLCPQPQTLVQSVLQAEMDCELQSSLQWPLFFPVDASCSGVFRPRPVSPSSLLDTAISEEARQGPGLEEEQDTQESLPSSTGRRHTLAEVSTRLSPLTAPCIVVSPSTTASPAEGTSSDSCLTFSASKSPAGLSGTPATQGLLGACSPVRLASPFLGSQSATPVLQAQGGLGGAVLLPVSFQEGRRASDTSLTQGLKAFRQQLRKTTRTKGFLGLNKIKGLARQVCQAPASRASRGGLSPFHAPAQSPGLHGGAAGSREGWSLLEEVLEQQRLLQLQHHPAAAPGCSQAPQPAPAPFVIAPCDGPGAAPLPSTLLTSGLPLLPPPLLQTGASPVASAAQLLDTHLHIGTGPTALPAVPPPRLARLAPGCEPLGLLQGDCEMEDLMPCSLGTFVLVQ
Sequence of CSNK1G2 (P78368 whole entry): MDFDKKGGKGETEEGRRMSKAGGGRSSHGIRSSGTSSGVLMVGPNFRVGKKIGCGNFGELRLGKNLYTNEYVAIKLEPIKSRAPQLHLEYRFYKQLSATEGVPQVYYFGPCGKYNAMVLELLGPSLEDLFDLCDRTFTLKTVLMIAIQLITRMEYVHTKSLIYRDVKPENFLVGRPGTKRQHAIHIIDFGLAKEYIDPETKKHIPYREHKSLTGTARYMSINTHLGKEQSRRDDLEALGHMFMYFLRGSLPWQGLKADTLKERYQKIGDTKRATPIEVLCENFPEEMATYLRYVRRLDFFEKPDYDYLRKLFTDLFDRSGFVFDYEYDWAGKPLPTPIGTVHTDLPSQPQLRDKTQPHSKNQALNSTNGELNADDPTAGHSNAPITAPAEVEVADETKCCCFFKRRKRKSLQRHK
Sequence of MAP4K4 (O95819 whole entry): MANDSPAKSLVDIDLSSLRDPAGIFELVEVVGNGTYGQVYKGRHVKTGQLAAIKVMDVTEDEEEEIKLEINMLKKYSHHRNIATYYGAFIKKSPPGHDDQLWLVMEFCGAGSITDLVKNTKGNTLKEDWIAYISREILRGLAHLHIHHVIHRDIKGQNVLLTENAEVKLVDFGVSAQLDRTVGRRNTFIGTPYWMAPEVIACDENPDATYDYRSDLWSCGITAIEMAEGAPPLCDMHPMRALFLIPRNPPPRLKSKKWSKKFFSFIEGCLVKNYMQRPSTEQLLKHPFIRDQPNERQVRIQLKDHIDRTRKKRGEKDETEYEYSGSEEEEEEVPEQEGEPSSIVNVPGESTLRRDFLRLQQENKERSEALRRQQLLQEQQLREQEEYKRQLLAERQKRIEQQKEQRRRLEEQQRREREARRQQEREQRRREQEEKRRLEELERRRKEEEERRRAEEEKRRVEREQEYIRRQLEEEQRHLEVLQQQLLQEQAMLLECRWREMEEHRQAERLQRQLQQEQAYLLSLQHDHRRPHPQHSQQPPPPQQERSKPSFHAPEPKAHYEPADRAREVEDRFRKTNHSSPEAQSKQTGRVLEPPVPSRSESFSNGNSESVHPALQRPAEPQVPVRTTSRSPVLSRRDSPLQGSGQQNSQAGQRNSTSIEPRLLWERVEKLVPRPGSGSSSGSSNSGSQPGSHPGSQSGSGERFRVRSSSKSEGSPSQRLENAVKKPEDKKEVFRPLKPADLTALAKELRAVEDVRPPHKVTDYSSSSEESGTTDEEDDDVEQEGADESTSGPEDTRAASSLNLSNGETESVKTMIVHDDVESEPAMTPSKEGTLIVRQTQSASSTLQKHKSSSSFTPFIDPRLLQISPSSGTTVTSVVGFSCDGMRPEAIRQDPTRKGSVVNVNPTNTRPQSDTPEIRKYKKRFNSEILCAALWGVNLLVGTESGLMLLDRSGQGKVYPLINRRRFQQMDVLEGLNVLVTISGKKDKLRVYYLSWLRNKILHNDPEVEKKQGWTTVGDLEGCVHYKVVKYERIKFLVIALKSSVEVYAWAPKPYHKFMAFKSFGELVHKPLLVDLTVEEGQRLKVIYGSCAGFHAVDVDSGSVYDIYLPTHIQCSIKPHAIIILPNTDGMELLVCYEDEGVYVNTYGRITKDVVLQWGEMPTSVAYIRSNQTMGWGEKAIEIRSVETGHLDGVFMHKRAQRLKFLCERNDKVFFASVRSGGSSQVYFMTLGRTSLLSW
T2 sequence (Q02779 whole entry): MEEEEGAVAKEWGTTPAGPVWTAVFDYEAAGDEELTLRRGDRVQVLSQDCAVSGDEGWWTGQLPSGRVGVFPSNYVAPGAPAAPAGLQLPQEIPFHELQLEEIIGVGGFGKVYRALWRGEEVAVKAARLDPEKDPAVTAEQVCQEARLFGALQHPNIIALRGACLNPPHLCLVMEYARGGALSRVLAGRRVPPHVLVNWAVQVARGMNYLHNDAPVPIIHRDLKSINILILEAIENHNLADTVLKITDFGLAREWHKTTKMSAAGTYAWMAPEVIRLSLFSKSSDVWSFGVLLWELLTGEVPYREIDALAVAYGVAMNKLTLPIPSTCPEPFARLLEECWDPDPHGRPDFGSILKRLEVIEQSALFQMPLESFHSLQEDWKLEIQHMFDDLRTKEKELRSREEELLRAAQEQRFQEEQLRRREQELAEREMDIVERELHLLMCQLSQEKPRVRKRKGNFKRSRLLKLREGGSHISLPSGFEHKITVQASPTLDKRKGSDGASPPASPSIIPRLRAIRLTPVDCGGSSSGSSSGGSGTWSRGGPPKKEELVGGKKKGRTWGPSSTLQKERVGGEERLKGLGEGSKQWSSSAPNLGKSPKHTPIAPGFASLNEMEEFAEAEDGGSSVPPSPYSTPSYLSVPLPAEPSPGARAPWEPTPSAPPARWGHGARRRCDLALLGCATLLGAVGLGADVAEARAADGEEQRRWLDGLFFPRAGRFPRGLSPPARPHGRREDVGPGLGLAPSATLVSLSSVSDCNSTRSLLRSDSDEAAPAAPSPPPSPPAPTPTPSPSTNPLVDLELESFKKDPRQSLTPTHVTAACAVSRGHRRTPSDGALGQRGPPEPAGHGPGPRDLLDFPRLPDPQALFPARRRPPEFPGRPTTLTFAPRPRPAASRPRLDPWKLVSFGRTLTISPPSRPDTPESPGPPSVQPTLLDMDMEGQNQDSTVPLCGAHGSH
Sequence of FGFR3(G697C) (P22607 whole entry G697C): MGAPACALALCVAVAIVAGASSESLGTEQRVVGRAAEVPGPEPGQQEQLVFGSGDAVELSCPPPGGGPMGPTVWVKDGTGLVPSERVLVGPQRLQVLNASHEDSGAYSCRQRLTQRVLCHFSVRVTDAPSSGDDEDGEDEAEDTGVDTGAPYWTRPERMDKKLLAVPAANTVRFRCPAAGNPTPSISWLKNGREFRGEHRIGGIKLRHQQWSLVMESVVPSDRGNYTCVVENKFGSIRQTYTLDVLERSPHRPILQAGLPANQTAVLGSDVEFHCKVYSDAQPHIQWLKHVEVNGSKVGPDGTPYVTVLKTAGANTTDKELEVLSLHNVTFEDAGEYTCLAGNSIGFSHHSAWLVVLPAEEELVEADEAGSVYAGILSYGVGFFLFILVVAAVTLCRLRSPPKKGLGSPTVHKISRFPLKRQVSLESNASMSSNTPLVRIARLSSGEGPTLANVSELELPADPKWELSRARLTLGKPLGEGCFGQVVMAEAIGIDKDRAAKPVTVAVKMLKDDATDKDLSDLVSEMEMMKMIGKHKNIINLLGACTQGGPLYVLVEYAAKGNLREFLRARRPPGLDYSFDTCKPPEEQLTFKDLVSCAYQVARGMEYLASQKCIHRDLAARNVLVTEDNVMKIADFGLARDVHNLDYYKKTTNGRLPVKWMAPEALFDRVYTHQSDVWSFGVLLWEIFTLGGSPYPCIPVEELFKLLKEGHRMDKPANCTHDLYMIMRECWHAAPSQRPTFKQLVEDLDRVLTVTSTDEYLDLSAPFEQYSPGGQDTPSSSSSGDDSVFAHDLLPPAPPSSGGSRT
Sequence of EIF2AK1 (Q9BQI3 whole entry): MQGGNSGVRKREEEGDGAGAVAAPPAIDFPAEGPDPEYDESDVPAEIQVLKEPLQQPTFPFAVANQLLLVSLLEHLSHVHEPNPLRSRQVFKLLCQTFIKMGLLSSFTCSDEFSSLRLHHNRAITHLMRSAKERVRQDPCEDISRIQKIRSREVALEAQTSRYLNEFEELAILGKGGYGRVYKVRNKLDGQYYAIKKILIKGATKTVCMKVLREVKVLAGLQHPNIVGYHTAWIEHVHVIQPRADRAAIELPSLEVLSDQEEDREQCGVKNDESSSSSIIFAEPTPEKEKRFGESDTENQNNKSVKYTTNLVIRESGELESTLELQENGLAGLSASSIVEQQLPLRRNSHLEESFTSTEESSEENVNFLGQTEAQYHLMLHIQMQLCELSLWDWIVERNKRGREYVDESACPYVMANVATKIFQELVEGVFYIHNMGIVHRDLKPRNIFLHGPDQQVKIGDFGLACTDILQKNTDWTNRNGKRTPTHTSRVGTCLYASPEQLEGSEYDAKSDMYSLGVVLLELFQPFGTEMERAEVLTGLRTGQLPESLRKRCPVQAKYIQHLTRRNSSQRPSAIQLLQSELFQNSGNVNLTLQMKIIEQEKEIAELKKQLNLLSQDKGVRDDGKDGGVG

Regarding `Cc1ncccc1Oc1sc(C(N)=O)c2c1-c1c(cnn1C)CC2` [T-474, 1-methyl-8-((2-methylpyridin-3-yl)oxy)-4,5-dihydro-1H-thieno[3,4-g]indazole-6-carboxamide], the remaining binding at 0.3 µM in [1] worked out at 100%; on ACVR1B, 77%; at AURKB, 100%; at BRSK2 it was 87%; on CDK3, 100%; on CIT it was 93%. Also, the remaining binding at 0.3 µM was 50% at CLK4; 90% at CSNK1G2; 99% on EGFR(G719C); 100% at EIF2AK1; 59% on FGFR3(G697C); 100% at FGR. Moreover, the remaining binding at 0.3 µM was 100% at FLT3(K663Q); 83% at MAP4K4; 97% on MLK2; 99% at PIP5K1A; 86% at PLK4; 100% at PRKX. Further, the remaining binding at 0.3 µM was 100% in assay [2], 61% at SGK3, 100% at SIK and 99% on p38-alpha.

On to `O=C(/C=C/c1cnccc1-c1ccc(F)cc1)Nc1ccc(CCc2nnco2)cc1` [T-418, (2E)-3-(4-(4-fluorophenyl)pyridin-3-yl)-N-(4-(2-(1,3,4-oxadiazol-2-yl)ethyl)phenyl)acrylamide], for which the remaining binding at 0.3 µM in [1] (sheet T-418) was 97%; at ACVR1B (sheet T-418), 77%; on AURKB (sheet T-418) it was 100%; at BRSK2 (sheet T-418), 100%; on CDK3 (sheet T-418), 95%; at CIT (sheet T-418), 95%. The remaining binding at 0.3 µM on CLK4 (sheet T-418) is 100%; on CSNK1G2 (sheet T-418) it was 100%; on EGFR(G719C) (sheet T-418), 72%; at EIF2AK1 (sheet T-418), 100%; at FGFR3(G697C) (sheet T-418), 66%; at FGR (sheet T-418) it was 93%. Also, the remaining binding at 0.3 µM was 100% at FLT3(K663Q) (sheet T-418); 89% on MAP4K4 (sheet T-418); 71% at MLK2 (sheet T-418); 94% at PIP5K1A (sheet T-418); 78% at PLK4 (sheet T-418); 100% at PRKX (sheet T-418). Further, the remaining binding at 0.3 µM was determined as 100% in [2] (sheet T-418), 62% at SGK3 (sheet T-418), 87% at SIK (sheet T-418) and 100% at p38-alpha (sheet T-418).

These data come from PMC5862592, “CDK8/19 inhibition induces premature G1/S transition and ATR-dependent cell death in prostate cancer cells” (Oncotarget, 2018).
